Data: US20250179108A1, “UTILITY OF NEMATODE SMALL MOLECULES” (California Institute of Technology, priority 2011, published 2025)
“Also recorded” adds a separate entry of the source.

Key:
[1] = system: males from many of the nematode species tested; experiment: Attraction assay, males of different nematode species; type: in vivo; conditions: 1 nM, 1 μM and 1 mM tested
Experimental: FIG. 5A depicts, in accordance with an embodiment herein, that ascarosides mediate behavior of nematode species from diverse generas. Species that were amenable to test in the attraction assay (sufficient movement, unbiased direction, reproducible controls) were scored for attraction or repulsion toward three concentrations (1 mM, 1 μM, and 1 nM: from left to right) of 13 different ascarosides. Pvalues were determined using the Student's t-test with a P<0.05. The score “0” represents any findings where P>0.05.
(§1) To investigate the biological function of the ascarosides identified in the MS screen, the inventors used a bioassay (FIGS. 1A-1C) to measure attraction of different nematode species to a wide range of ascaroside concentrations (1 nM, 1 μM, and 1 mM). For these bioassays, nematode species had to fulfill several requirements, such as sufficient movement on bacterial lawns, low tendency to aggregate, easy to grow, and generally reproducible locomotive behavior. This study was limited to a survey of males from different species, because males tended to move much more evenly across our bioassay lawn than females and hermaphrodites (with the exception of P. redivivus females, which move well and were therefore in this study.)
(§2) OP50 E. coli is grown on a standard 5 cm agar plate (made with standard Nematode Growth Medium). The bacterial lawn is 16 mm in diameter and is grown overnight at 20C before being used in trials. Two 4-mm spots ([…]) were placed on opposite sides of the bacterial lawn (using a transparent template to guide spot placement) and several minutes elapsed for the liquid to settle in before placing nematodes down on the assay. Recording began immediately upon worm placement. […] of the control was placed on one side of the lawn and […] of the experimental cue was placed on the other side of the lawn, changing the location of the cue throughout trials, between left/right and top/bottom to avoid bias. Nematodes were isolated by gender at the L4 stage the day before being used in trials as developed adults. Five worms were each placed at two points equidistant from the foci of the scoring region (ten total). Trials were recorded for 20 minutes and frames were collected for analysis at 1 frame per second. Results were averaged from at least three different trials. For every nematode species in this study, the inventors tested different total number of worms (using water in both scoring regions) to determine the minimum number of worms necessary for consistent unbiased results over a 20-minute trial. The total number of worms used in the multiple species assays depending on that species' optimal parameters. 10 worms were for P. redivivus males and females, 20 worms were used for C. elegans males, O. dolichuridae males, and C. sp7 males and 14 worms were used forS. glaseri males.
A video camera attached to the microscope produces a digital video stream, which is then analyzed. The ratio of time the average worm spends in each region of interest is calculated for every trial. For ease of implementation, it was assumed that all worms in a single experiment are roughly the same size. Thus, worm pixels were counted instead of whole worms, allowing the inventors to take into account fractions of a worm in the region of interest. It also eliminated the need for a shape-based worm identification algorithm, and allowed each frame to be analyzed independently. The inventors applied a band-pass filter to each frame to eliminate the effect of uneven lighting and also accentuate the worms against the background. The worm was then identified after thresholding the filtered image. Throughout each experiment, the inventors know the locations and sizes of the regions of interest. Through the filtering described above, the inventors know which pixels are occupied by worms and which ones are not. They are then able to calculate the ratio of worm-pixels to all pixels inside the region of interest to produce the worm- occupancy ratio. […]

C. elegans males [2] = experiment: Attraction assay, C. elegans males; type: in vivo, Caenorhabditis elegans; conditions: tested at 1 nM, 1 μM and 1 mM
Experimental: as §1
OP50 E. coli is grown on a standard 5 cm agar plate (made with standard Nematode Growth Medium). […] Trials were recorded for 20 minutes and frames were collected for analysis at 1 frame per second. […]
(§3) A video camera attached to the microscope produces a digital video stream, which is then analyzed. The ratio of time the average worm spends in each region of interest is calculated for every trial. […] Thus, worm pixels were counted instead of whole worms, allowing the inventors to take into account fractions of a worm in the region of interest. It also eliminated the need for a shape-based worm identification algorithm, and allowed each frame to be analyzed independently. […]

P. redivivus males = experiment: Attraction assay, Panagrellus redivivus males; type: in vivo
Experimental: (§4) FIG. 1A depicts, in accordance with an embodiment herein, a chemoattraction assay to reveal a gender specific mate finding cue in Panagrellus redivivus. A transparent template is attached below a 5-cm plate with a 16-mm bacterial lawn to delineate two scoring regions into which 0.6μL of the experimental sample and control sample are placed. Ten P. redivivus males are placed at points equidistant from the two scoring regions and the plate is recorded for 20 minutes (at a rate of 1 frame per second).
(§5) FIG. 1B depict attraction measured using software that computes the ratio of worm-pixels to total pixels for each scoring region.
(§6) FIG. 1C that the output is a plot of worm occupancy ratio vs. time for both scoring regions. The shown graph indicates strong attraction of P. redivivus males to the experimental sample. FIG. 2A depicts, in accordance with an embodiment herein, purification of the female sex pheromone in Panagrellus redivivus.
OP50 E. coli is grown on a standard 5 cm agar plate (made with standard Nematode Growth Medium). The bacterial lawn is 16 mm in diameter and is grown overnight at 20C before being used in trials. Two 4-mm spots ([…]) were placed on opposite sides of the bacterial lawn (using a transparent template to guide spot placement) and several minutes elapsed for the liquid to settle in before placing nematodes down on the assay. Recording began immediately upon worm placement. […] Trials were recorded for 20 minutes and frames were collected for analysis at 1 frame per second. […]
as §3

asthmatic mice = experiment: Ovalbumin induction of asthma, allergic airway inflammation in mice; type: in vivo; conditions: for eosinophils / mucus hyper-production / cellular infiltration into the lungs: asthmatic mice; for cellular infiltration into the lungs: lung histology
Experimental: FIG. 7A depicts, in accordance with an embodiment herein, sensitization with OVA+ Control/Alum (N=3) and sensitization with OVA+NES/Alum (N=3), in Nippostrongylus brasiliensis. The experimental model is ovalbumin inducation of asthma. […] No worm, living or dead, is introduced into the asthma model. Furthermore, proteins were eliminated by denaturing at 100C for 25 minutes, and filtering through a 10 kDa filter. FIGS. 7B-7D depict the histology of mice treated with NES.
The effects of ascarosides are examined for an allergic airway inflammation.

C. elegans males [3] = conditions: reduced attraction at high concentrations; cited from earlier work
P. redivivus females [4] = experiment: Repulsion scoring by behavioral response (immediate exit of the conditioned region); type: in vivo, Panagrellus redivivus; conditions: high concentrations
Text: The inventors thus used a separate method for scoring repulsion that focused on behavioral response rather than time spent in each region.

C. elegans = conditions: cited from earlier work
P. redivivus females [5] = experiment: Attraction assay, Panagrellus redivivus females; type: in vivo
Experimental: as §4, §5, §6
as §2, with “The total number of worms used in the multiple species assays depending on that species' optimal parameters. 10 worms were for P. redivivus males and females, 20 worms were used for C. elegans males, O. dolichuridae males, and C. sp7 males and 14 worms were used forS. glaseri males.” left out
as §3

[6] = any of the tested concentrations

Structure (SMILES) | attraction of males [1] | eosinophils (asthmatic mice) | mucus hyper-production (asthmatic mice) | cellular infiltration into the lungs (asthmatic mice) | also measured
CC1O[C@@H](O[C@H](C)CCC(=O)O)[C@@H](O)C[C@H]1O (some centres unmarked) [ascr #9] | attracted |  |  |  | 
C[C@H](CC/C=C/C(=O)O)O[C@@H]1O[C@@H](C)[C@H](O)C[C@H]1O [ascr #7] | attracted | reduction; also recorded: markedly reduced | decreased | decreased | male response (attraction) (C. elegans males [2]): only respond to 1 mM; male attraction (P. redivivus males; 1 mM and 1 μM): attracted; effect on allergic airway inflammation (asthmatic mice; synthesized ascarosides tested individually, FIG. 10B): inhibitory effect
CC(=O)CCCC(C)OC1OC(C)C(O)CC1O (centres unmarked) [ascr #2] |  |  |  |  | male response to hermaphroditic sex pheromones (C. elegans males [3]): biphasic response
CC1O[C@@H](O[C@H](C)CCCCC(=O)O)C(O)C[C@H]1O (single isomer, unassigned; (-)) [ascr #1, (−) 6-(3,5-dihydroxy-6-methyltetrahydropyran-2-yloxy) heptanoic acid] | attracted | reduction | decreased | decreased | female repulsion, immediate exit of the conditioned region before entering a full worm's length (P. redivivus females [4]): significantly repelled; male attraction (Attraction Bioassay) (P. redivivus males; P. redivivus males): strongly attracted; also recorded: full male attraction; eosinophils (asthmatic mice; listed as Ascr #1): some effect; induction of diapause (dauer) (C. elegans): weakly induces diapause; female attraction (P. redivivus females [5]; [6]): not attracted; female attraction (P. redivivus females [5]; between 100 and 106 fmol, FIG. 2E): not attracted; female repulsion, semi-automated scoring method (P. redivivus females [5]; time spent in each region): not significantly repelled
C[C@H](CC/C=C/C(=O)Nc1ccc(C(=O)O)cc1)O[C@@H]1O[C@@H](C)[C@H](O)C[C@H]1O [ascr #8] | attracted |  |  |  | 
CC1O[C@@H](O[C@H](C)CCCC/C=C/C(=O)O)[C@@H](O)C[C@H]1O (some centres unmarked) [ascr #3] | attracted | reduction; also recorded: some effect | decreased | decreased | male response to hermaphroditic sex pheromones (C. elegans males [3]): biphasic response
CC1O[C@@H](O[C@H](C)CCCCCCC(=O)O)[C@@H](O)C[C@H]1O (some centres unmarked) [ascr #10] | attracted |  |  |  | male attraction (P. redivivus males; very high, nonphysiological concentration of 1 mM): some attraction; female attraction (P. redivivus females [5]; [6]): do not respond
